Test results reported in patent US20100022491A1, “4-HYDROXY-2-OXO-2,3-DIHYDRO-1,3-BENZOTHIAZOL-7YL COMPOUNDS FOR MODULATION OF B2-ADRENORECEPTOR ACTIVITY” (ASTRAZENECA AB, priority 2006, published 2010).
Where a name gives a salt, the structure may show the parent alone.

Legend:
[1] = biological target: T1, recombinant human α1D receptor (Homo sapiens, UniProt P25100); experiment: Adrenergic α1D selectivity binding assay ([3H]-prazosin); details: inhibition of [3H]-prazosin (0.3 nM) binding, HEK293 membranes; read-out: α1 bind pIC50 (converted)
T1 construct: expressed in transfected cells; host or cells: HEK293
T1 sequence (P25100 1-572): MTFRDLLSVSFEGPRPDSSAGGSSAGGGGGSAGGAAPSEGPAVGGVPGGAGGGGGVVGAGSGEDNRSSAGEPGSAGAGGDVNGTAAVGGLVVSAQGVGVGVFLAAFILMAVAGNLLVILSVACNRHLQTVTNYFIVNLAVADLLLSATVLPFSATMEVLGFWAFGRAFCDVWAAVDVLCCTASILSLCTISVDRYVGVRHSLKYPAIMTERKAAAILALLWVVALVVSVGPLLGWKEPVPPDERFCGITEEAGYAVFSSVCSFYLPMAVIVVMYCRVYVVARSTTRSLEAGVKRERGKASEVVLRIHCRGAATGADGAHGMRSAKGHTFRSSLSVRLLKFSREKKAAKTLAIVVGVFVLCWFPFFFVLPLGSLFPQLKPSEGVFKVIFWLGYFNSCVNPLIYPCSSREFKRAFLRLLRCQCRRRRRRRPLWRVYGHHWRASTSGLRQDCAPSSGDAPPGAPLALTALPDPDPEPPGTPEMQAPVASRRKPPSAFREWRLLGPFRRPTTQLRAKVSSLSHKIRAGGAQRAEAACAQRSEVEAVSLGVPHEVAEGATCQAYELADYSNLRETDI
Description: Membranes were prepared from human embryonic kidney 293 (HEK293) cells expressing recombinant human α1D receptor. These were diluted in Assay Buffer (50 mM HEPES, 1 mM EDTA, 0.1% gelatin, pH 7.4) to provide a final concentration of membranes that gave a clear window between maximum and minimum specific binding.
Assays were performed in U-bottomed 96-well polypropylene plates. 10 μL [^3H]-prazosin (0.3 nM final concentration) and 10 μL of test compound (10× final concentration) were added to each test well. For each assay plate 8 replicates were obtained for [^3H]-prazosin binding in the presence of 10 μL vehicle (10% (v/v) DMSO in Assay Buffer; defining maximum binding) or 10 μL BMY7378 (10 μM final concentration; defining non-specific binding (NSB)). Membranes were then added to achieve a final volume of 100 μL. The plates were incubated for 2 hours at room temperature and then filtered onto PEI coated GF/B filter plates, pre-soaked for 1 hour in Assay Buffer, using a 96-well plate Tomtec cell harvester. Five washes with 250 μL wash buffer (50 mM HEPES, 1 mM EDTA, pH 7.4) were performed at 4° C. to remove unbound radioactivity. The plates were dried then sealed from underneath using Packard plate sealers and MicroScint-O (50 μL) was added to each well. The plates were sealed (TopSeal A) and filter-bound radioactivity was measured with a scintillation counter (TopCount, Packard BioScience) using a 3-minute counting protocol.
(§1) Total specific binding (B0) was determined by subtracting the mean NSB from the mean maximum binding. NSB values were also subtracted from values from all other wells. […] Data was fitted to a four parameter logistic equation to determine the compound potency, which was expressed as pIC50 (negative log molar concentration inducing 50% inhibition of [^3H]-prazosin binding).

Adrenergic β2 = biological target: T2, Adrenergic β2 (Homo sapiens, UniProt P07550); experiment: Adrenergic β2 mediated cAMP production in H292 cells; assay type: cell-based; details: for EC50: H292 cells, cAMP by AlphaScreen, 60 minutes at room temperature, rolipram 300 μM, read-out: β2 pEC50 (converted); for β2 Int Act: Intrinsic Activity as a fraction relative to the maximum activity determined for formoterol
T2 construct: Adherent H292 cells were removed from tissue culture flasks; endogenous in cells; host or cells: H292 cells
T2 sequence (P07550 whole entry): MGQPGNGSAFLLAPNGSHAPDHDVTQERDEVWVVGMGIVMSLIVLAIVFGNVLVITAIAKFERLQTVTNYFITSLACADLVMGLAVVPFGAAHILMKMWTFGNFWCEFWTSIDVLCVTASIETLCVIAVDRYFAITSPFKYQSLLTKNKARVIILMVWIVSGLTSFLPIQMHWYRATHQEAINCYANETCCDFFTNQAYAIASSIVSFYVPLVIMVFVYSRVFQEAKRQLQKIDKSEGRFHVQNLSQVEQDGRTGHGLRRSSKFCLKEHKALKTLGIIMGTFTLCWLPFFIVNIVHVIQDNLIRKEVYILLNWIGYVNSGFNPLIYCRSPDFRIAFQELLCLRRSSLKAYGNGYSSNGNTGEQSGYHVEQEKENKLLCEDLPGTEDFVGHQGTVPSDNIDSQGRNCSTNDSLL
Description: Adrenergic β2 mediated cAMP production
H292 cells were grown in 225 cm2 flasks incubator at 37° C., 5% CO2 in RPMI medium containing, 10% (v/v) FBS (foetal bovine serum) and 2 mM L-glutamine.
Adherent H292 cells were removed from tissue culture flasks by treatment with Accutase™ cell detachment solution for 15 minutes. Flasks were incubated for 15 minutes in a humidified incubator at 37° C., 5% CO2. Detached cells were re-suspended in RPMI media (containing 10% (v/v) FBS and 2 mM L-glutamine) at 0.05×10^6 cells per mL. 5000 cells in 100 μL were added to each well of a tissue-culture-treated 96-well plate and the cells incubated overnight in a humidified incubator at 37° C., 5% CO2. The culture media was removed and cells were washed twice with 100 μL assay buffer and replaced with 50 μL assay buffer (HBSS solution containing 10 mM HEPES pH7.4 and 5 mM glucose). Cells were rested at room temperature for 20 minutes after which time 25 μL of rolipram (1.2 mM made up in assay buffer containing 2.4% (v/v) dimethylsulphoxide) was added. Cells were incubated with rolipram for 10 minutes after which time test compounds were added and the cells were incubated for 60 minutes at room temperature. The final rolipram concentration in the assay was 300 μM and final vehicle concentration was 1.6% (v/v) dimethylsulphoxide. The reaction was stopped by removing supernatants, washing once with 100 μL assay buffer and replacing with 50 μL lysis buffer. The cell monolayer was frozen at −80° C. for 30 minutes (or overnight).
The concentration of cAMP (cyclic adenosine monophosphate) in the cell lysate was determined using AlphaScreen™ methodology. The frozen cell plate was thawed for 20 minutes on a plate shaker then 10 μL of the cell lysate was transferred to a 96-well white plate. 40 μL of mixed AlphaScreen™ detection beads pre-incubated with biotinylated cAMP, was added to each well and the plate incubated at room temperature for 10 hours in the dark. The AlphaScreen™ signal was measured using an EnVision spectrophotometer (Perkin-Elmer Inc.) with the recommended manufacturer's settings. cAMP concentrations were determined by reference to a calibration curve determined in the same experiment using standard cAMP concentrations. Concentration response curves for agonists were constructed and data was fitted to a four parameter logistic equation to determine both the pEC50 and Intrinsic Activity. Intrinsic Activity was expressed as a fraction relative to the maximum activity determined for formoterol in each experiment.

[2] = biological target: T3, recombinant human Dopamine Subtype D2s receptors (Homo sapiens, UniProt P14416); experiment: Dopamine D2 selectivity binding assay ([3H]-spiperone); details: inhibition of [3H]-spiperone (0.16 nM) binding; read-out: D2 bind pIC50 (converted)
T3 construct: purchased Perkin Elmer
T3 sequence (P14416 1-414 isoform P14416-2): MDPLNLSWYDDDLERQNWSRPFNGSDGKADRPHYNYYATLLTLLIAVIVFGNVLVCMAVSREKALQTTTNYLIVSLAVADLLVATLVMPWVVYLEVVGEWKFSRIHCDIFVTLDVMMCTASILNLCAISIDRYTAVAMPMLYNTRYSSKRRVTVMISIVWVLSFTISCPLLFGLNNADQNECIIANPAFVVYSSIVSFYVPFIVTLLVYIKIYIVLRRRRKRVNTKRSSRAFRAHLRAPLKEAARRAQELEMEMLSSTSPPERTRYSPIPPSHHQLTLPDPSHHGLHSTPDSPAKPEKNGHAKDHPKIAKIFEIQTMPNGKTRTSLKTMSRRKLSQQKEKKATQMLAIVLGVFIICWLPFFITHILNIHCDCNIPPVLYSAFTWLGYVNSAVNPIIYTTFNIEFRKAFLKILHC
Description: Membranes containing recombinant human Dopamine Subtype D2s receptors were obtained from Perkin Elmer. These were diluted in Assay Buffer (50 mM HEPES, 1 mM EDTA, 120 mM NaCl, 0.1% gelatin, pH 7.4) to provide a final concentration of membranes that gave a clear window between maximum and minimum specific binding.
Assays were performed in U-bottomed 96-well polypropylene plates. 30 μL [^3H]-spiperone (0.16 nM final concentration) and 30 μL of test compound (10× final concentration) were added to each test well. For each assay plate 8 replicates were obtained for [^3H]-spiperone binding in the presence of 30 μL vehicle (10% (v/v) DMSO in Assay Buffer; defining maximum binding) or 30 μL Haloperidol (10 μM final concentration; defining non-specific binding (NSB)). Membranes were then added to achieve a final volume of 300 μL. The plates were incubated for 2 hours at room temperature and then filtered onto PEI coated GF/B filter plates, pre-soaked for 1 hour in Assay Buffer, using a 96-well plate Tomtec cell harvester. Five washes with 250 μL wash buffer (50 mM HEPES, 1 mM EDTA, 120 mM NaCl, pH 7.4) were performed at 4° C. to remove unbound radioactivity. The plates were dried then sealed from underneath using Packard plate sealers and MicroScint-O (50 μL) was added to each well. The plates were sealed (TopSeal A) and filter-bound radioactivity was measured with a scintillation counter (TopCount, Packard BioScience) using a 3-minute counting protocol.
as §1, with “[^3H]-spiperone” for “[^3H]-prazosin”

| IC50 [1] [nM] | EC50 (Adrenergic β2) [nM] | β2 Int Act (Adrenergic β2) | IC50 [2] [nM] | SMILES |
| --- | --- | --- | --- | --- |
| 200 | 3.98 | 0.89 | 794 | C[C@H](CNCCC(=O)N(CCNCCc1ccc(O)c2[nH]c(=O)sc12)C1CCCCC1)c1ccccc1 [Example 18, N-Cyclohexyl-N-(2-{[2-(4-hydroxy-2-oxo-2,3-dihydro-1,3-benzothiazol-7-yl)ethyl]amino}ethyl)-N^3-[(2S)-2-phenylpropyl]-β-alaninamide bis-trifluoroacetic acid salt] |
| 631 | 251 | 0.58 | 1260 | CC(=O)OCC(C)(C)CN(CCNCCc1ccc(O)c2[nH]c(=O)sc12)C(=O)CCNCCc1ccc(Cl)cc1 [Example 39, 3-[{N-[2-(4-Chlorophenyl)ethyl]-β-alanyl}(2-{[2-(4-hydroxy-2-oxo-2,3-dihydro-1,3-benzothiazol-7-yl)ethyl]amino}ethyl)amino]-2,2-dimethylpropyl acetate diacetic acid salt] |
| 100 | 15.8 | 0.78 | 631 | O=C(CCNCCc1ccccn1)N(CCNCCc1ccc(O)c2[nH]c(=O)sc12)C1CCCCC1 [Example 33, N-Cyclohexyl-N-(2-{[2-(4-hydroxy-2-oxo-2,3-dihydro-1,3-benzothiazol-7-yl)ethyl]amino}ethyl)-N^3-(2-pyridin-2-ylethyl)-β-alaninamide bis-trifluoroacetic acid salt] |
| 251 | 31.6 | 0.85 | 3980 | CC(C)(CNCCC(=O)N(CCNCCc1ccc(O)c2[nH]c(=O)sc12)C1CCCCC1)c1ccccc1 [Example 21, N-Cyclohexyl-N-(2-{[2-(4-hydroxy-2-oxo-2,3-dihydro-1,3-benzothiazol-7-yl)ethyl]amino}ethyl)-N^3-(2-methyl-2-phenylpropyl)-β-alaninamide bis-trifluoroacetic acid salt] |
| 398 | 39.8 | 0.70 | 1000 | CC(C)(Cc1ccccc1)NCCC(=O)N(CCNCCc1ccc(O)c2[nH]c(=O)sc12)C1CCCCC1 [Example 19, N-Cyclohexyl-N^3-(1,1-dimethyl-2-phenylethyl)-N-(2-{[2-(4-hydroxy-2-oxo-2,3-dihydro-1,3-benzothiazol-7-yl)ethyl]amino}ethyl)-β-alaninamide bis-trifluoroacetic acid salt] |
| 251 | 39.8 | 0.34 | 794 | CC(C)N(CCNCCc1ccc(O)c2[nH]c(=O)sc12)C(=O)CCNCCc1ccc(Cl)cc1 [Example 3, N^3-[2-(4-Chlorophenyl)ethyl]-N-(2-{[2-(4-hydroxy-2-oxo-2,3-dihydro-1,3-benzothiazol-7-yl)ethyl]amino}ethyl)-N-isopropyl-β-alaninamide bis-trifluoroacetic acid salt] |
| 251 | 5.01 | 0.69 | 794 | Cc1cccc(CCNCCC(=O)N(CCNCCc2ccc(O)c3[nH]c(=O)sc23)CC(C)(C)C)c1 [Example 10, N-(2,2-Dimethylpropyl)-N-(2-{[2-(4-hydroxy-2-oxo-2,3-dihydro-1,3-benzothiazol-7-yl)ethyl]amino}ethyl)-N^3-[2-(3-methylphenyl)ethyl]-β-alaninamide bis-trifluoroacetic acid salt] |
| 251 | 20 | 0.78 | 398 | CC(C)N(CCNCCc1ccc(O)c2[nH]c(=O)sc12)C(=O)CCNCCc1ccccc1 [Example 1, N-(2-{[2-(4-Hydroxy-2-oxo-2,3-dihydro-1,3-benzothiazol-7-yl)ethyl]amino}ethyl)-N-isopropyl-N^3-(2-phenylethyl)-β-alaninamide bis-trifluoroacetic acid salt] |
| 251 | 10 | 0.97 | 794 | C[C@@H](CNCCC(=O)N(CCNCCc1ccc(O)c2[nH]c(=O)sc12)C1CCCCC1)c1ccccc1 [Example 20, N-Cyclohexyl-N-(2-{[2-(4-hydroxy-2-oxo-2,3-dihydro-1,3-benzothiazol-7-yl)ethyl]amino}ethyl)-N^3-[(2R)-2-phenylpropyl]-β-alaninamide bis-trifluoroacetic acid salt] |
| 126 | 5.01 | 0.84 | 200 | COc1cccc(CCNCCC(=O)N(CCNCCc2ccc(O)c3[nH]c(=O)sc23)C2CCCCC2)c1 [Example 70, N^1-Cyclohexyl-N^1-(2-{[2-(4-hydroxy-2-oxo-2,3-dihydro-1,3-benzothiazol-7-yl)ethyl]amino}ethyl)-N^3-[2-(3-methoxyphenyl)ethyl]-β-alaninamide bis-trifluoroacetic acid salt] |
